Columns and labels:
[1] = target: hMC4R (Homo sapiens (Human), UniProt P32245); assay: pGLO cAMP assay, PAM HTS primary screen; format: cell-based; conditions: 1 μM of library compound
Description: (§1) Drug screening for identification of hits and initial characterization of MC4R PAM compounds were performed using the pGLO assay, as described previously (Pantel J, et al., (2011) Development of a high throughput screen for allosteric modulators of melanocortin-4 receptor signaling using a real time cAMP assay. Eur J Pharmacol 660:139-147. HEK293 cells stably expressing the hMC4R or the hB2ADR with GloSensor (Promega) were plated at a density of 10,000 to 15,000 cells per well on Poly-D-Lysin coated black optical bottom 384 well plates in MEM supplemented with 2% serum. The next day, cells were loaded with the cAMP Glo reagent at a 2% concentration in CO2-independent media for 2 hours at 37° C. […]
(§2) HEK293 cells stably expressing the hMC4R or the β-adrenergic receptor with the p-Promega pGlo luciferase cAMP reporter were plated at a density of 10,000 to 15,000 cells per well on Poly-D-Lysin coated black optical bottom 384 well plates in MEM supplemented with 2% serum. The next day, cells were loaded with the p-Glo substrate at a 2% concentration in CO2-independent media for 2 hours at 37° C. cAMP concentration in cells were measured as a function of luminescence over time using a Hamamatsu FDSS 6000 plate reader. Basal luminescence were measured for 5 minutes followed by injection of 1 μM of the library compounds. […]

[2] = target: human β2-adrenergic receptor (Homo sapiens (Human), UniProt P07550); assay: pGLO cAMP assay, counterscreen; format: cell-based; conditions: Isop EC20
Description: as §1, §2

Sequence of hMC4R (P32245 whole entry): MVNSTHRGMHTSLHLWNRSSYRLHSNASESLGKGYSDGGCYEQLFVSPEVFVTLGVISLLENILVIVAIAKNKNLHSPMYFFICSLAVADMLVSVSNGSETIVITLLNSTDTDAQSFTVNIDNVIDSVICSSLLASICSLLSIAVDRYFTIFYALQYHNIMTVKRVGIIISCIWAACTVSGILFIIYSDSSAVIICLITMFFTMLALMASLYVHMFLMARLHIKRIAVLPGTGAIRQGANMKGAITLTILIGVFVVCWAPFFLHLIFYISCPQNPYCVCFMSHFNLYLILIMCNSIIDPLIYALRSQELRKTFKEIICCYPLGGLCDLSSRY
Sequence of human β2-adrenergic receptor (P07550 whole entry): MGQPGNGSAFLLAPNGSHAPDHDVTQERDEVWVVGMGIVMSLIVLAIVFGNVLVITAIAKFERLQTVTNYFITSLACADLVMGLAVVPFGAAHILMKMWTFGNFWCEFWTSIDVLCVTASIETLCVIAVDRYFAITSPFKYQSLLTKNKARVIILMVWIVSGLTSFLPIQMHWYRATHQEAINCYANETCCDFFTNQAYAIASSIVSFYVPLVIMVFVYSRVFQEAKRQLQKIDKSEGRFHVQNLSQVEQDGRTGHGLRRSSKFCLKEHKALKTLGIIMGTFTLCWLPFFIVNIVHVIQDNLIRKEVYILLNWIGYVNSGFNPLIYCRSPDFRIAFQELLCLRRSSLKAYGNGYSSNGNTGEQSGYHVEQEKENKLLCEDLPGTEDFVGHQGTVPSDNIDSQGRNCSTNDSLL

Effect on hMC4R signaling (cAMP) with α-MSH EC20 [1]: enhanced hMC4R signaling
SMILES: COc1cc(-c2nc(NCc3ccco3)c3ccccc3n2)cc(OC)c1OC [VUO127431, N-(furan-2-ylmethyl)-2-(3,4,5-trimethoxyphenyl)quinazolin-4-amine]
Effect on β2-adrenergic-receptor signaling (cAMP) [2]: no significant effect on β2-adrenergic-receptor signaling
